Laboratory results as given in patent publication US11723911B2, “Treatment of demyelinating diseases” (M ET P PHARMA AG, priority 2018, dated 2023).

Columns and labels:
[1] = test system: primary mixed glial cells; test: Proliferation of Olig2+ cells (BrdU incorporation) in primary mixed glial cell cultures; type: cell-based, mouse; conditions: for Olig2+ BrdU+ proliferating cells as percentage of total Olig2+ cells: SAG 1 μM or testosterone 1 μM from 5 to 12 DIV, BrdU 2 hours before end of culture
Description: Primary glial cell cultures were prepared from the dorsal telencephalon of newborn (P1) male mice as previously described in Feutz et al, J. Neurocytol, “Isolation and characterization of defective jimpy oligodendrocytes in culture”, 24:865-877 ([…]). Briefly, meninges are removed, and the dorsal telencephalons are microdissected and mechanically dissociated in DMEM supplemented with 10% calf serum, penicillin (50 U/ml), and streptomycin (50 μg/ml) (Thermo Fisher Scientific, France). The cell suspension is plated in a 24-well plates containing 0.5 ml of cultured medium coated with 30 μg/ml poly-1-lysine (Sigma-Aldrich). Cultures containing astrocytes, oligodendrocytes (OLs) and microglia cells are then incubated in 5% CO2 and 95% air in a humidified atmosphere (90%) at 37° C.
[…]. The supplemented culture medium was replaced every other day with a fresh solution. At 12 DIV, the cells were fixed for 20 minutes with 4% paraformaldehyde (PFA) in PBS, then permeabilized with 0.025% Triton X-100 for 10 minutes and blocked for 1 hour with Sea Block buffer (Thermo Fisher Scientific).
The cells were immunostained for BrdU and Olig2. For immunostaining, after overnight incubation with the primary antibodies at 4° C. followed by 3 washes in PBS, the cells were incubated with the appropriate secondary antibodies for 2 hours before washing with PBS and the addition of Fluoromount (Vector, clinisciences, France) as the mounting medium. Images were acquired with immunofluorescence microscopy as described above. (Data not shown).

[2] = test system: primary mixed glial cells derived from Plp-EGP mice; test: Differentiation of PLP+ oligodendroglial cells co-expressing MBP in primary mixed glial cells from Plp-EGFP mice; type: cell-based, mouse; conditions: for fold increase in the percentage of PLP+ cells co-expressing MBP compared to control / percentage of PLP+ cells co-expressing MBP: SANT 0.1 μM, testosterone 1 μM, alone or together; for percentage of PLP+ cells co-expressing MBP: 12 DIV
Description: Briefly, meninges are removed, and the dorsal telencephalons are microdissected and mechanically dissociated in DMEM supplemented with 10% calf serum, penicillin (50 U/ml), and streptomycin (50 μg/ml) (Thermo Fisher Scientific, France). The cell suspension is plated in a 24-well plates containing 0.5 ml of cultured medium coated with 30 μg/ml poly-1-lysine (Sigma-Aldrich).
The supplemented culture medium was replaced every other day with a fresh solution.
To analyse differentiation of myelin producing cells, the primary mixed glial cells were derived from Plp-EGP mice and cultured as described above. Detection of PLP+ cells co-expressing MBP was performed by using primary mixed glial cells derived from Plp-EGP mice and immunostaining for Mbp. Immunofluorescence images were acquired as described above and the number of PLP^+ cells co-expressing MBP were evaluated.

[3] = test system: LPC-induced demyelination in young male adult mice; test: LPC-induced demyelination of the corpus callosum with or without SAG (immunostaining at 2 and 10 dpl); type: in vivo, mouse
Description: Image Acquisition and Analysis. Images were taken using the microscope analyzing system Axiovision 4.2 (Carl Zeiss, Inc.), the confocal Zeiss LSM 510-Meta Confocor 2 and the scanner imager with the CaseViewer software. Analyses were performed with ImageJ software. At least 10 sections per mouse were analyzed and data are the mean of 3-5 mice. For the brains derived from the lysolecithin (LPC)-injected animals, immunofluorescent-positive cells or areas were determined in one every other 5 sections throughout the whole demyelinated lesion per mouse and averaged for each animal. The lesion surface was determined by measuring the area of the nuclear densification (correlated with myelin loss visualized by MBP or PLP staining) one every other 5 slices through the whole demyelinated lesion.
The effect of Smo activation by the Smo agonist SAG on demyelination was investigated as follows. LPC-induced demyelination was performed as previously described in Ferent et al., J. Neuroscience 33:1759-1772 (2013), in the absence or presence of SAG, in young male adult mice. Briefly, demyelinating lesions were induced unilaterally by stereotaxic injections of 2 μl of a solution containing LPC 1% (Sigma-Aldrich) along with SAG (0.2 μM) or the corresponding vehicle, into the right corpus callosum by using a Hamilton syringe specifically dedicated for neural surgery (NH BIO, France). The injection was performed at the following coordinates (to the bregma): anteroposterior (AP)+1 mm, lateral+1 mm, dorsoventral (DV) −2.2 mm. The brain was removed from deeply anesthetized mice and transcardially perfused with 4% PFA. The tissue was post-fixed for 4 hours in a fresh 4% PFA solution before being cryopreserved in 30% sucrose, frozen in liquid nitrogen and cryostat sectioned (14 μm). 4-5 mice were used per time point for each treatment condition. Mice were sacrificed at 2 and 10 days post-lesion (dpl), and prepared for immunostaining of PDGFRα, Olig2/APC, Ki67/PDGFRα, GFAP, and Iba1/Arg1. Images of immunostaining were acquired using immunofluorescence microscopy (data not shown), and the results were quantified by evaluating number of cells per surface unit for PDGFRα (FIG. 4A), Olig2/APC (FIG. 4B), Ki67/PDGFRα (FIG. 4C), GFAP (FIG. 4D), Iba1/Arg1 (FIG. 4E)

[4] = test system: experimental autoimmune encephalomyelitis (EAE) in castrated male mice; test: Experimental autoimmune encephalomyelitis (EAE): clinical score, electron microscopy and immunostaining of lumbar spinal cord; type: in vivo, mouse; conditions: for density of myelinated axons in spinal cord (electron microscopy) / g-ratio (axon diameter/total outer diameter of the myelinated fiber) / percentage of abnormal axons among total axons: 30 days post EAE induction; for g-ratio (axon diameter/total outer diameter of the myelinated fiber): small calibre axons (≤2.5 μm), n=3; for total density of activated Iba1+ microglia in the spinal cord: FIG. 5E; for EAE clinical score: between days 21 and 30, testosterone intranasal 0.2 mg/day, SAG oral gavage every other day; for area occupied by Arg1+ cells as percentage of the total area of the lesion: lumbar spinal cord, FIG. 5F; for percentage of abnormal axons among total axons / GFAP-positive area as percentage of the lesion area: spinal cord; for GFAP-positive area as percentage of the lesion area: FIG. 5G
Description: Electron microscopy. […] The g ratio (the ratio between the axon diameter and fiber diameter corresponding to myelin sheath+axon diameter) was estimated by measuring the minimum and maximum axon diameter and fiber diameter for each axon using ImageJ software. At least 300 randomly chosen myelinated axons were evaluated for each animal.
The pathology was induced according to the instructions from the provider (Hooke Laboratories, MA, USA). Briefly, mice were immunized by subcutaneous injection of an emulsion of MOG35-55 peptide (myelin oligodendrocyte glycoprotein[…] fragment 35-55) in complete Freund's adjuvant (at two sites using 0.1 ml of the pre-conditioned mixture for each site) followed on the same day (Day 0) by a first intraperitoneal injection of pertussis toxin in PBS and by a second one on Day 1 (250 ng/dose). The mice were scored blindly once a day starting at Day 7 post-immunization until Day 30 according to the following scale: 0.0=no obvious changes in motor function; 0.5=tip of tail is limp; 1.0=limp tail; 1.5=limp tail and hind leg inhibition; 2.0=limp tail and weakness of hind legs or signs of head tilting; 2.5=limp tail and dragging of hind legs or signs of head tilting; 3.0=limp tail and complete paralysis of hind legs or limb tail with paralysis of one front and one hind leg; 3.5=limp tail and complete paralysis of hind legs and animal unable to right itself when placed on its side; 4.0=limb tail, complete hind leg and partial front leg paralysis with minimal moving and feeding; 4.5=complete hind and partial front leg paralysis with no movement around the cage with the animal appearing no more alert; 5.0=extreme paralysis which requires euthanasia of the animal.
The active agents were administered at the onset of clinical symptoms until Day 30 after immunization. Testosterone was administered via the intranasal route (0.2 mg/day in a volume of 2.5 μl in each nostril) in an oleogel composition as described above. SAG was administered orally by gavage ([…] of mouse weight) every other day.
The animals were sacrificed by ketamine overdose. The spinal cord/vertebrae was removed and lumbar spinal cord/vertebrae samples were treated according to the requirements of the various histological procedures. For immunostaining, the spinal cord/vertebrae fragments were post-fixed in PFA 4% for 24 hrs. The spinal cords were removed from the vertebral column, processed in an ethanol/xylene bath and embedded in paraffin blocks. 7-μm sections were then obtained using a microtome (Leica) and allowed to dry on glass slides overnight at 37° C. For electron microscopy, the spinal cord/vertebrae fragments were post-fixed in a mixture of PFA 2% and glutaraldehyde 2% for 5 days. The spinal cords were removed from the vertebral column, post-fixed in cacodylate-buffered 1% osmium tetroxide for 1 hour at 4° C. and in 2% uranyl acetate for 1 hour at room temperature, and then dehydrated by serial dilutions of ethanol and embedded in epoxy resin. Ultrathin sections were contrasted with a saturated uranyl acetate solution.

[5] = test system: postnatal day 10 male pups; test: Developmental myelination in male pups treated subcutaneously from P3 to P10 (MBP/NF200 immunostaining); type: in vivo, mouse; conditions: s.c. every other day from P3, SANT 20 μg/g, testosterone 20 μg
[6] = test system: LPC-induced demyelination model, castrated male mice; test: Phosphorylated STAT3-expressing astrocytes in castrated male mice demyelinated by lysolecithin; type: in vivo, mouse
Excerpt: […]. The latter is important for both remyelination and astrocyte reactivity, which is similar to activated microglia involved in local inflammation. […].

CN[C@H]1CC[C@H](N(Cc2cccc(-c3ccncc3)c2)C(=O)c2sc3ccccc3c2Cl)CC1 [SAG, 3-Chloro-N-[trans-4-(methylamino)cyclohexyl]-N-[[3-(4-pyridinyl)phenyl]methyl]benzo[b]thiophene-2-carboxamide]
Olig2+ BrdU+ proliferating cells as percentage of total Olig2+ cells [1]: 8.4±0.5% | Effect on Mbp expression when used alone ([2]; SAG 0.1 μM or 1 μM alone): did not modify Mbp expression | Effect on testosterone-mediated OL differentiation ([2]; SAG 0.1 μM or 1 μM with testosterone 1 μM): slight but significant decrease | Iba1+ microglia versus control ([3]; 2 dpl): unaffected | area occupied by GFAP+ astrocytes versus control ([3]; 2 dpl): tended to be decreased | density of Arg1+ pro-regenerative microglia ([3]; 2 dpl): 103±7 cells per surface unit | density of proliferating Ki67+ PDGFRα+ OPCs ([3]; 2 dpl): 39±2 cells per surface unit | fold enhancement of the density of Arg1+ microglia ([3]; 2 dpl): 2 fold | fold increase of the proportion of Iba1 microglia co-expressing Arg1 ([3]; 2 dpl): two-fold | proportion of Iba1 microglia co-expressing Arg1 ([3]; 2 dpl): 58±5% | total number of PDGFRα+ OPCs versus control ([3]; 2 dpl): remained unchanged | density of Olig2+ APC+ mature OLs ([3]; 10 dpl): 83±7 cells per surface unit | fold increase in PDGFRα+ cells compared to controls ([3]; 10 dpl): 2 fold | proportion of mature OLs versus control ([3]; 10 dpl): not significantly different | PDGFRα+ cells (OPCs) per unit surface ([3]; 10 dpl, SAG 0.2 μM injected with LPC): 121±11 cells per surface unit | density of myelinated axons in spinal cord (electron microscopy) [4]: much higher density of myelinated axons | g-ratio (axon diameter/total outer diameter of the myelinated fiber) [4]: 0.737±0.005 | total density of activated Iba1+ microglia in the spinal cord [4]: Neither testosterone nor SAG was found to significantly modify | EAE clinical score [4]: ~1.0 | Claudin 5-positive area as percentage of the lesion area ([4]; blood brain barrier tight junction marker, FIG. 5H): 2.35±0.27% | area occupied by Arg1+ cells as percentage of the total area of the lesion [4]: 10.9±1.7% | percentage of abnormal axons among total axons [4]: 14.0±1.7% | GFAP-positive area as percentage of the lesion area [4]: 25.1±2.2%

C[C@]12CC[C@H]3[C@@H](CCC4=CC(=O)CC[C@@]43C)[C@@H]1CC[C@@H]2O [testosterone]
Olig2+ BrdU+ proliferating cells as percentage of total Olig2+ cells [1]: 3.8±0.6% | fold increase in the percentage of PLP+ cells co-expressing MBP compared to control [2]: 4 fold | percentage of PLP+ cells co-expressing MBP [2]: 11.7±1.5% | myelinated area: area occupied by MBP as percentage of total area occupied by NF200 axons [5]: 78.0±4.1% | number of GFAP+ astrocytes expressing phosphorylated STAT3 ([6]; 7 days post-lesion, intranasal testosterone 0.2 mg/day or intranasal estradiol 0.05 mg/day): increased | density of myelinated axons in spinal cord (electron microscopy) [4]: much higher density of myelinated axons | g-ratio (axon diameter/total outer diameter of the myelinated fiber) [4]: 0.773±0.003 | total density of activated Iba1+ microglia in the spinal cord [4]: Neither testosterone nor SAG was found to significantly modify | EAE clinical score [4]: ~2.0 | area occupied by Arg1+ cells as percentage of the total area of the lesion [4]: 6.8±1.4% | percentage of abnormal axons among total axons [4]: 15.8±1.4% | GFAP-positive area as percentage of the lesion area [4]: 38.8±1.8%

Cc1nn(-c2ccccc2)c(C)c1C=NN1CCN(Cc2ccccc2)CC1 [SANT-1, (4-Benzyl-piperazin-1-yl)-(3,5-dimethyl-1-phenyl-1H-pyrazol-4-ylmethylene)-amine]
Effect on testosterone-induced increase in Olig2+ BrdU+ cells ([1]; SANT-1 0.1 μM with testosterone 1 μM): blocks testosterone-induced increase | fold increase in the percentage of PLP+ cells co-expressing MBP compared to control [2]: 4 fold | percentage of PLP+ cells co-expressing MBP [2]: 12.4±0.8% | myelinated area: area occupied by MBP as percentage of total area occupied by NF200 axons [5]: 75.1±4.3%

N#Cc1ccc(C2CCCc3cncn32)cc1 (stereo not shown) [fadrozole]
effect on the testosterone-induced increase of phosphorylated STAT3-expressing astrocytes ([6]; fadrozole per oral route 260 μg/kg with intranasal testosterone, 7 days): inhibited
